Assay results published in patent publication US10039806B2, “Methods and compositions for treating antiprogestin-resistant cancers” (Fundación Sales, priority 2011, dated 2018).

Tests used:
[1] = system: BT-474 and T47D xenografts; conditions: 25 mg; mice treated with E2 followed by MPA; cited from earlier work
MCF-7 xenografts = conditions: MIF 50 mg/kg/day, ONA 30 mg/kg/day, 17 days; cited from earlier work
T47D-YA tumors = experiment: Xenograft in NOD/LtSz-scid/IL-2Rgamma null mice; format: in vivo, human
Excerpt: (§1) BH-6 cell line was developed from an invasive ductal breast carcinoma (1). IBH-6 cells express basal levels of hormone receptors, they are tumorigenic and in vivo express higher levels of PRB than PRA (2). Cells were transfected with human PRB, PRA (pSG5-PRB, pSG5-PRA, kindly provided by K. Horwitz) or with the empty vector (pSG5), together with a plasmid encoding the neomycin resistance gene pIRES-N1(3), using Lipofectamine transfection reagent (Invitrogen) following the manufacturer's instructions. Transfected and selected cells were cultured in medium supplemented with […] G418 (neomycin analogue, GIBCO). The expression of PRB and PRA were analyzed by western blot and immunofluorescence (using Ab7 and Ab6 antibodies from Thermo Fisher). T47D-YA or YB were kindly provided by K. Horwitz and cultured as previously described (4).
(§2) Transfected and selected cells were grown up to confluence, washed with PBS, detached with 0.25% trypsin, centrifuged at 1000 rpm for 10 min and resuspended in a final concentration of 10^6 (IBH-6) or 5×10^6 (T47D) cells per 100 μl of culture medium. The cells were sc inoculated into the right flank of nu/nu (IBH-6) or NOD/LtSz-scid/IL-2Rgamma null (T47D-YA or -YB cells) female mice. Only in experiments involving T47D cells E2 silastic pellets (0.5 mg) were implanted sc into the back of the animals one week prior tumor cell inoculation and 70 μl of Matrigel were mixed with the cell suspension at the moment of injection. MFP (6 mg) silastic pellets were sc implanted when tumors reached 20-40 mm^2. For T47D cells, experiments were repeated inoculating both cell types (T47D-YA or -YB) simultaneously in the left or right flank of the mouse, respectively.
(§3) Sections of formalin-fixed, paraffin-embedded tissue were stained with PR (C-19), or Ki67 (Dako, M7248) antibodies using the avidin-biotin-peroxidase complex technique (Vectastain Elite ABC kit; Vector), as described previously (6). Positive cells were counted in 10 high-power fields (HPFs) of each section, using 1000× magnification, and expressed as the mean±SEM of the ratio between the number of positive events and the total cell number.

T47D-YB tumors = experiment: Xenograft in NOD/LtSz-scid/IL-2Rgamma null mice; format: in vivo, human
Excerpt: as §1, §2, §3

IBH-6-PRA tumors = experiment: Xenograft in nude mice; format: in vivo, human
Excerpt: as §1, §2
Cytosolic or nuclear extracts were processed for western blots as described previously (5). The cells were lysed using Mammalian Protein Extraction Reagent (Pierce, Rockford, Ill.) according to the manufacturer's instructions. […] The band intensities from 3-4 different samples in different western blots were quantified using Image Quant software.

## CC#C[C@]1(O)CC[C@H]2[C@@H]3CCC4=CC(=O)CCC4=C3[C@@H](c3ccc(N(C)C)cc3)C[C@@]21C [RU-486, mifepristone]
[1]
  growth of xenografts: prevent the growth
MCF-7 xenografts
  E2-induced proliferation of xenografts: inhibited
T47D-YA tumors; MFP pellet, E2 pellet 0.5 mg, p<0.05
  tumor size: reduced their size
T47D-YA tumors; in vivo
  mitotic figures and apoptosis: Few mitotic figures and a high degree of apoptosis
  nuclear MYC or CCND1 expression (IHC): decreased levels of nuclear MYC or CCND1 expression
  tumor morphology: morphological signs of tumor regression
T47D-YB tumors; MFP pellet, E2 pellet 0.5 mg
  tumor size: no significant differences
T47D-YB tumors; in vivo
  nuclear MYC or CCND1 staining (IHC): intense nuclear staining
IBH-6-PRA tumors; MFP 6 mg pellet, p<0.05
  in vivo growth: inhibited
IBH-6-PRA tumors; western blot, p<0.01
  expression of MYC: significantly inhibited
IBH-6-PRA tumors; western blot, p<0.05
  expression of CCND1: significantly inhibited
